Where two headings read alike, the source gives them in different places.
Tested on: Human breast cancer cell line KPL-1 tumor
Format: in vivo, nude mouse

**Q.** For COc1cccc2c1C(=O)c1c(O)c3c(c(O)c1C2=O)C[C@@](O)(C(=O)CO)C[C@@H]3O[C@H]1C[C@H](N)[C@H](O)[C@H](C)O1 [adriamycine, adriamycin], which “Tumor volume, Average” value (Day 0 (grouping)) is on record?
**A.** 97.7 mm3

**Q.** And the “Tumor volume, Average” value (Day 4)?
**A.** 133.6 mm3

**Q.** What about the “Tumor volume, Average” value (Day 7) of the same compound?
**A.** 145.4 mm3

**Q.** And the “Tumor volume, Average” value (Day 11)?
**A.** 257.9 mm3

**Q.** What about the “Tumor volume, Average” value (Day 15) of the same compound?
**A.** 415.2 mm3

**Q.** What about the “Tumor volume, Average” value (Day 19) of the same compound?
**A.** 625.2 mm3

**Q.** What about the “Tumor volume, Average” value (Day 21) of the same compound?
**A.** 852.6 mm3

**Q.** What about the “T/C (%) at Day 21” value (average tumor volume of group / Group I × 100) of the same compound?
**A.** 63.8%
